Assay results reported in US8278319B2, “Substituted spiroamine compounds” (Gruenenthal GmbH, priority 2008, dated 2012).

How the values were obtained:
[1] = target: T1, rat B1R (Rattus norvegicus, UniProt P97583); assay: Functional investigation on the bradykinin receptor 1 (B1R), FLIPR Ca2+ assay, rB1R cells; type: cell-based; details: % inhibition rat B1R at 10 μM; CHO K1 cells transfected with rat B1R; agonist Des-Arg9 bradykinin at EC80; read-out: % Inh. (rat B1R) 10 μM
T1 construct: expressed in transfected cells; host or cells: CHO K1 cells
T1 sequence (P97583 1-337): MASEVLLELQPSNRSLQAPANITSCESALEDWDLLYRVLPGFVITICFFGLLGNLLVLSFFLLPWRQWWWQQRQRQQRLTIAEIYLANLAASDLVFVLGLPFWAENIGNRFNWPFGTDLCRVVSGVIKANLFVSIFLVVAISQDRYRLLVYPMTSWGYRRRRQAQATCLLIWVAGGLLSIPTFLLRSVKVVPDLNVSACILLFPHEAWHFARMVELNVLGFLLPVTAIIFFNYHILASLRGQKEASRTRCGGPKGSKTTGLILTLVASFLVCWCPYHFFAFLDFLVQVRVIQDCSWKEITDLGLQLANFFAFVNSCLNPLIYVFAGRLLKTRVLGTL
Protocol: (§1) The agonistic or antagonistic action of substances can be quantified on the bradykinin receptor 1 (B1R) of the human and rat species with ectopically expressing cell lines (CHO K1 cells) and with the aid of a Ca^2+-sensitive dye (Fluo-4) using a fluorescent imaging plate reader (FLIPR). The indication in % activation is based on the Ca^2+ signal after addition of Lys-Des-Arg^9 bradykinin (0.5 nM) or Des-Arg^9 bradykinin (100 nM). Antagonists lead to a suppression of the Ca^2+ influx following administration of the agonist. The % inhibition in comparison with the maximum achievable inhibition is indicated.
(§2) The agonistic or antagonistic action of substances can be determined on the bradykinin 1 receptor (B1R) of the human and rat species with the following assay. According to this assay, the Ca^2+ inflow through the channel is quantified with the aid of a Ca^2+-sensitive dye (Fluo-4 type, Molecular Probes Europe BV, Leiden, The Netherlands) in a fluorescent imaging plate reader (FLIPR, Molecular Devices, Sunnyvale, USA).
(§3) Chinese hamster ovary cells (CHO K1 cells) which are stably transfected with the human B1R gene (hB1R cells) or the B1R gene of the rat (rB1R cells) are used. For functional investigations, these cells are plated-out onto black 96-well plates with a clear base (BD Biosciences, Heidelberg, Germany or Greiner, Frickenhausen, Germany) in a density of 20,000-35,000 cells/well. Overnight, the cells are incubated at 37° C. and 5% CO2 in culture medium (hB1R cells: Nutrient Mixture Ham's F12, Gibco Invitrogen GmbH, Karlsruhe, Germany or DMEM, Sigma-Aldrich, Taufkirchen, Germany; rB1R cells: D-MEM/F12, Gibco Invitrogen, Karlsruhe, Germany) with 10 vol. % FBS (foetal bovine serum, Gibco Invitrogen GmbH, Karlsruhe, Germany or PAN Biotech GmbH, Aidenbach, Germany). On the following day the cells are loaded with 2.13 μM Fluo-4 (Molecular Probes Europe BV, Leiden, The Netherlands) in HBSS buffer (Hank's buffered saline solution, Gibco Invitrogen GmbH, Karlsruhe, Germany) with 2.5 mM probenecid (Sigma-Aldrich, Taufkirchen, Germany) and 10 mM HEPES (Sigma-Aldrich, Taufkirchen, Germany) for 60 min at 37° C. The plates are the washed twice with HBSS buffer, and HBSS buffer which additionally contains 0.1% BSA (bovine serum albumin; Sigma-Aldrich, Taufkirchen, Germany), 5.6 mM glucose and 0.05% gelatine (Merck KGaA, Darmstadt, Germany) is added. After a further incubation of 20 minutes at room temperature, the plates are inserted into the FLIPR for Ca^2+ measurement. Alternatively they are washed with buffer A (15 mM HEPES, 80 mM NaCl, 5 mM KCl, 1.2 mM CaCl2, 0.7 mM MgSO4, 2 g/l glucose, 2.5 mM probenecid) and loaded with buffer A with added 2.5 μM Fluo-4 and 0.025% Pluronic F127 (Sigma-Aldrich, Taufkirchen, Germany). The cells are then washed twice with buffer A and incubated for 30 minutes with buffer A, which additionally contains 0.05% BSA and 0.05% gelatine, at room temperature and then used for Ca^2+ measurement in the FLIPR.
(§4) The Ca^2+-dependent fluorescence is measured here before and after addition of substances (λex=488 nm, λem=540 nm). The quantification is performed by measuring the highest fluorescence intensity (FC, fluorescence counts) over time.
(§5) The FLIPR protocol comprises two additions of substance. Test substances (10 μM) are first pipetted onto the cells and the Ca^2+ inflow is compared with the control (hB1R: Lys-Des-Arg^9 bradykinin>=50 nM; rB1R: Des-Arg^9 bradykinin 10 μM). The value in % activation based on the Ca^2+ signal after addition of Lys-Des-Arg^9 bradykinin (>=50 nM) or Des-Arg^9 bradykinin (10 μM) is obtained therefrom. After incubation for 10-20 minutes, Lys-Des-Arg^9 bradykinin (hB1R) or Des-Arg^9 bradykinin (rB1R) is applied in the EC80 concentration and the inflow of Ca^2+ is likewise determined. Antagonists lead to a suppression of the Ca^2+ inflow. The % inhibition in comparison with the maximum achievable inhibition is calculated. […]

[2] = target: T2, human B1R (Homo sapiens, UniProt P46663); assay: Functional investigation on the bradykinin receptor 1 (B1R), FLIPR Ca2+ assay, hB1R cells; type: cell-based; details: % inhibition human B1R at 10 μM; CHO K1 cells transfected with human B1R; agonist Lys-Des-Arg9 bradykinin at EC80; read-out: % Inh. (hum. B1R) 10 μM
T2 construct: expressed in transfected cells; host or cells: CHO K1 cells
T2 sequence (P46663 1-353): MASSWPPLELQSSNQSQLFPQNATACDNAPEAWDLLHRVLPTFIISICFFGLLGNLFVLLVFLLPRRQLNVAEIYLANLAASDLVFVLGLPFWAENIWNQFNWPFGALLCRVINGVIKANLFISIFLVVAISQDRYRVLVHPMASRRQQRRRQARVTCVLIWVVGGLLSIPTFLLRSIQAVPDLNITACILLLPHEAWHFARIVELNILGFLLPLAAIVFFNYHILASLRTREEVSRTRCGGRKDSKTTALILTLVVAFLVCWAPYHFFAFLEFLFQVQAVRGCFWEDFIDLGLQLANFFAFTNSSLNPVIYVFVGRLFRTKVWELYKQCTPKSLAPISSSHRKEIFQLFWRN
Protocol: as §1, §2, §3, §4, §5

Compound	inhibition at 10 µM [1]	inhibition at 10 µM [2]
O=C(CC1CCCCN1S(=O)(=O)c1cccc(C(F)(F)F)c1)N1CCC2(CC1)CCC(c1cccc(F)c1)(N1CCCC1)CC2 (stereo not shown) [CC-01, 1-[3-(3-Fluorophenyl)-3-pyrrolidin-1-yl-9-azaspiro[5.5]undecan-9-yl]-2-[1-[[3-(trifluoromethyl)phenyl]sulfonyl]-piperidin-2-yl]-ethanone]	75%	73%
COc1cc(C)c(S(=O)(=O)N2CCCCC2CCCC(=O)N2CCC3(CC2)CCC(c2cccc(F)c2)(N2CCCC2)CC3)c(C)c1 (stereo not shown) [CC-02, 1-[3-(3-Fluorophenyl)-3-pyrrolidin-1-yl-9-azaspiro[5.5]undecan-9-yl]-4-[1-[(4-methoxy-2,6-dimethyl-phenyl)sulfonyl]-pipereridin-2-yl]-butan-1-one]	98%	100%
COc1cc(C)c(S(=O)(=O)N2CCCCC2COCC(=O)N2CCC3(CC2)CCC(c2cccc(F)c2)(N2CCCC2)CC3)c(C)c1 (stereo not shown) [CC-03, 1-[3-(3-Fluorophenyl)-3-pyrrolidin-1-yl-9-azaspiro[5.5]undecan-9-yl]-2-[[1-[(4-methoxy-2,6-dimethyl-phenyl)sulfonyl]-piperidin-2-yl]-methoxy]-ethanone]	99%	100%
COc1cc(C)c(S(=O)(=O)N(CCOCC(=O)N2CCC3(CC2)CCC(c2cccc(F)c2)(N2CCCC2)CC3)C2CC2)c(C)c1 [CC-04, N-Cyclopropyl-N-[2-[2-[3-(3-fluorophenyl)-3-pyrrolidin-1-yl-9-azaspiro[5.5]undecan-9-yl]-2-oxo-ethoxy]-ethyl]-4-methoxy-2,6-dimethyl-benzenesulfonic acid amide]	98%	100%
Cc1cccc(Cl)c1S(=O)(=O)N1CCCCC1COCC(=O)N1CCC2(CC1)CCC(c1cccc(F)c1)(N1CCCC1)CC2 (stereo not shown) [CC-05, 2-[[1-[(2-Chloro-6-methyl-phenyl)sulfonyl]-piperidin-2-yl]-methoxy]-1-[3-(3-fluorophenyl)-3-pyrrolidin-1-yl-9-azaspiro[5.5]undecan-9-yl]-ethanone]	98%	100%
Cc1cccc(Cl)c1S(=O)(=O)N(CCOCC(=O)N1CCC2(CC1)CCC(c1cccc(F)c1)(N1CCCC1)CC2)C1CC1 [CC-06, 2-Chloro-N-cyclopropyl-N-[2-[2-[3-(3-fluorophenyl)-3-pyrrolidin-1-yl-9-azaspiro[5.5]undecan-9-yl]-2-oxo-ethoxy]-ethyl]-6-methyl-benzenesulfonic acid amide]	97%	100%
Cc1cc(S(=O)(=O)N2CCCCC2CCC(=O)N2CCC3(CC2)CCC(c2cccc(F)c2)(N2CCCC2)CC3)c(C)cc1Cl (stereo not shown) [CC-07, 3-[1-[(4-Chloro-2,5-dimethyl-phenyl)sulfonyl]-piperidin-2-yl]-1-[3-(3-fluorophenyl)-3-pyrrolidin-1-yl-9-azaspiro[5.5]undecan-9-yl]-propan-1-one]	86%	99%
O=C(CC(NS(=O)(=O)c1ccc2ccccc2c1)c1ccccc1)N1CCC2(CC1)CCC(c1cccc(F)c1)(N1CCCC1)CC2 (stereo not shown) [CC-08, N-[3-[3-(3-Fluorophenyl)-3-pyrrolidin-1-yl-9-azaspiro[5.5]undecan-9-yl]-3-oxo-1-phenyl-propyl]-naphthalene-2-sulfonic acid amide]	96%	81%
Cc1cccc(Cl)c1S(=O)(=O)N(CCOCC(=O)N1CCC2(CC1)CCC(c1cccs1)(N(C)C)CC2)C1CC1 [CC-09, 2-Chloro-N-cyclopropyl-N-[2-[2-(3-dimethylamino-3-thiophen-2-yl-9-azaspiro[5.5]undecan-9-yl)-2-oxo-ethoxy]-ethyl]-6-methyl-benzenesulfonic acid amide]	97%	100%
CN(C)C1(c2cccs2)CCC2(CCN(C(=O)CC3CCCCN3S(=O)(=O)c3cccc(C(F)(F)F)c3)CC2)CC1 (stereo not shown) [CC-10, 1-(3-Dimethylamino-3-thiophen-2-yl-9-azaspiro[5.5]undecan-9-yl)-2-[1-[[3-(trifluoromethyl)phenyl]sulfonyl]-piperidin-2-yl]-ethanone]	79%	84%
COc1cc(C)c(S(=O)(=O)N2CCCCC2COCC(=O)N2CCC3(CC2)CCC(c2cccs2)(N(C)C)CC3)c(C)c1 (stereo not shown) [CC-11, 1-(3-Dimethylamino-3-thiophen-2-yl-9-azaspiro[5.5]undecan-9-yl)-2-[[1-[(4-rnethoxy-2,6-dimethyl-phenyl)sulfonyl]-piperidin-2-yl]-methoxy]-ethanone]	98%	100%
COc1cc(C)c(S(=O)(=O)N(CCOCC(=O)N2CCC3(CC2)CCC(c2cccs2)(N(C)C)CC3)C2CC2)c(C)c1 [CC-12, N-Cyclopropyl-N-[2-[2-(3-dimethylamino-3-thiophen-2-yl-9-azaspiro[5.5]undecan-9-yl)-2-oxo-ethoxy]-ethyl]-4-methoxy-2,6-dimethyl-benzenesulfonic acid amide]	97%	100%
Cc1cccc(Cl)c1S(=O)(=O)N1CCCCC1COCC(=O)N1CCC2(CC1)CCC(c1cccs1)(N(C)C)CC2 (stereo not shown) [CC-13, 2-[[1-[(2-Chloro-6-methyl-phenyl)sulfonyl]-piperidin-2-yl]-methoxy]-1-(3-dimethylamino-3-thiophen-2-yl-9-azaspiro[5.5]undecan-9-yl)-ethanone]	98%	100%
Cc1cc(S(=O)(=O)N2CCCCC2CCC(=O)N2CCC3(CC2)CCC(c2cccs2)(N(C)C)CC3)c(C)cc1Cl (stereo not shown) [CC-14, 3-[1-[(4-Chloro-2,5-dimethyl-phenyl)sulfonyl]-piperidin-2-yl]-1-(3-dimethylamino-3-thiophen-2-yl-9-azaspiro[5.5]undecan-9-yl)-propan-1-one]	101%	99%
